{"source": "patent US8030443B2", "about": "“Squamous cell carcinoma antigen-derived peptide binding to HLA-A24 molecule” (Kurume University, priority 2005, dated 2011)", "system": "peptide-specific IgG in sera of cancer patients and healthy donors", "assay": "Measurement of anti-peptide IgG in plasma by LUMINEX multiplexed flow cytometric assay", "format": "binding, human", "method": "The levels of anti-peptide immunoglobulin G (IgG) were measured by the LUMINEX™ system (multiplexed flow cytometric assay) as previously reported (Komatsu N, Shichijo S, Nakagawa M, Itoh K. New multiplexed flow cytometric assay to measure anti-peptide antibody: a novel tool for monitoring immune responses to peptides used for immunization. Scand J Clin Lab Invest 2004; 64:1-11). In brief, plasma was incubated with 25 μl of peptide-coupled color-coded beads for 2 hr at room temperature on a plate shaker. After incubation, the mixture was washed with a vacuum manifold apparatus and incubated with 100 μl of biotinylated goat anti-human IgG (γ chain-specific)(BA-3080, Vector Laboratories, Burlingame, Calif., USA) for 1 h at room temperature. The plate was then washed, followed by the addition of 100 μl of streptavidin-PE (S-866, Molecular Probes, Eugene, Oreg., USA) into wells, and was incubated for 30 min at room temperature on a plate shaker. The bound beads were washed three times followed by the addition of 100 μl of Tween-PBS into each well. Fifty μl of sample was detected using the LUMINEX™ system (multiplexed flow cytometric assay). To confirm the specificity of IgG to a SCCA peptide, sample plasma was cultured in plates coated with a corresponding SCCA peptide, or with an irrelevant SCCA peptide. After the operation was repeated three times, the levels of the corresponding SCCA peptide-specific IgG in the resulting supernatant were determined by the LUMINEX™ system (multiplexed flow cytometric assay).\nThese 9 SCCA-derived peptides were screened based on their ability to be recognized by IgG in cancer patients. Peptide-specific IgG was measured by a multiplexed flow cytometric assay (LUMINEX™ (multiplexed flow cytometric assay)). The plasma samples were derived from 35 uterine cervical SCC patients, 10 breast adenocarcinoma patients, 10 pancreatic adenocarcinoma patients, 10 gastric adenocarcinoma, and 6 colon adenocarcinoma patients. The level of fluorescence intensity was judged to be significant when exceeded 100 at an 1/100 dilution.", "data": [{"sequence": "EYLDAIKKF (SCCA 118-126 peptide) [SCCA-derived peptide, position 118-126]", "values": [{"measurement": "Total: healthy donors with significant peptide-reactive IgG / donors tested", "setting": "10 healthy donors, significant when fluorescence intensity exceeded 100 at 1/100 dilution", "value": "2/10"}, {"measurement": "Total: cancer patients with significant peptide-reactive IgG / patients tested", "setting": "71 cancer patients, significant when fluorescence intensity exceeded 100 at 1/100 dilution", "value": "7/71"}, {"measurement": "Fluorescence intesity", "setting": "serum of Breast Ca. patient #36, 1:100 dilution", "value": 5}, {"measurement": "Fluorescence intesity", "setting": "serum of Breast Ca. patient #37, 1:100 dilution", "value": 23}, {"measurement": "Fluorescence intesity", "setting": "serum of Breast Ca. patient #38, 1:100 dilution", "value": 1}, {"measurement": "Fluorescence intesity", "setting": "serum of Breast Ca. patient #39, 1:100 dilution", "value": 1}, {"measurement": "Fluorescence intesity", "setting": "serum of Breast Ca. patient #40, 1:100 dilution", "value": 0}, {"measurement": "Fluorescence intesity", "setting": "serum of Breast Ca. patient #41, 1:100 dilution", "value": 123}, {"measurement": "Fluorescence intesity", "setting": "serum of Breast Ca. patient #42, 1:100 dilution", "value": 14}, {"measurement": "Fluorescence intesity", "setting": "serum of Breast Ca. patient #43, 1:100 dilution", "value": 7}, {"measurement": "Fluorescence intesity", "setting": "serum of Breast Ca. patient #44, 1:100 dilution", "value": 0}, {"measurement": "Fluorescence intesity", "setting": "serum of Breast Ca. patient #45, 1:100 dilution", "value": 18}, {"measurement": "Fluorescence intesity", "setting": "serum of Colon Ca. patient #66, 1:100 dilution", "value": 2}, {"measurement": "Fluorescence intesity", "setting": "serum of Colon Ca. patient #67, 1:100 dilution", "value": 0}, {"measurement": "Fluorescence intesity", "setting": "serum of Colon Ca. patient #68, 1:100 dilution", "value": 0}, {"measurement": "Fluorescence intesity", "setting": "serum of Colon Ca. patient #69, 1:100 dilution", "value": 0}, {"measurement": "Fluorescence intesity", "setting": "serum of Colon Ca. patient #70, 1:100 dilution", "value": 0}, {"measurement": "Fluorescence intesity", "setting": "serum of Colon Ca. patient #71, 1:100 dilution", "value": 17}, {"measurement": "Fluorescence intesity", "setting": "serum of Gastric Ca. patient #56, 1:100 dilution", "value": 0}, {"measurement": "Fluorescence intesity", "setting": "serum of Gastric Ca. patient #57, 1:100 dilution", "value": 0}, {"measurement": "Fluorescence intesity", "setting": "serum of Gastric Ca. patient #58, 1:100 dilution", "value": 0}, {"measurement": "Fluorescence intesity", "setting": "serum of Gastric Ca. patient #59, 1:100 dilution", "value": 21}, {"measurement": "Fluorescence intesity", "setting": "serum of Gastric Ca. patient #60, 1:100 dilution", "value": 0}, {"measurement": "Fluorescence intesity", "setting": "serum of Gastric Ca. patient #61, 1:100 dilution", "value": 5}, {"measurement": "Fluorescence intesity", "setting": "serum of Gastric Ca. patient #62, 1:100 dilution", "value": 0}, {"measurement": "Fluorescence intesity", "setting": "serum of Gastric Ca. patient #63, 1:100 dilution", "value": 0}, {"measurement": "Fluorescence intesity", "setting": "serum of Gastric Ca. patient #64, 1:100 dilution", "value": 2}, {"measurement": "Fluorescence intesity", "setting": "serum of Gastric Ca. patient #65, 1:100 dilution", "value": 0}, {"measurement": "Fluorescence intesity", "setting": "serum of Healthy Donor #1, 1:100 dilution", "value": 0}, {"measurement": "Fluorescence intesity", "setting": "serum of Healthy Donor #2, 1:100 dilution", "value": 47}, {"measurement": "Fluorescence intesity", "setting": "serum of Healthy Donor #3, 1:100 dilution", "value": 0}, {"measurement": "Fluorescence intesity", "setting": "serum of Healthy Donor #4, 1:100 dilution", "value": 0}, {"measurement": "Fluorescence intesity", "setting": "serum of Healthy Donor #5, 1:100 dilution", "value": 0}, {"measurement": "Fluorescence intesity", "setting": "serum of Healthy Donor #6, 1:100 dilution", "value": 0}, {"measurement": "Fluorescence intesity", "setting": "serum of Healthy Donor #7, 1:100 dilution", "value": 0}, {"measurement": "Fluorescence intesity", "setting": "serum of Healthy Donor #8, 1:100 dilution", "value": 324}, {"measurement": "Fluorescence intesity", "setting": "serum of Healthy Donor #9, 1:100 dilution", "value": 37}, {"measurement": "Fluorescence intesity", "setting": "serum of Healthy Donor #10, 1:100 dilution", "value": 0}, {"measurement": "Fluorescence intesity", "setting": "serum of Pancreas Ca. patient #46, 1:100 dilution", "value": 0}, {"measurement": "Fluorescence intesity", "setting": "serum of Pancreas Ca. patient #47, 1:100 dilution", "value": 0}, {"measurement": "Fluorescence intesity", "setting": "serum of Pancreas Ca. patient #48, 1:100 dilution", "value": 404}, {"measurement": "Fluorescence intesity", "setting": "serum of Pancreas Ca. patient #49, 1:100 dilution", "value": 0}, {"measurement": "Fluorescence intesity", "setting": "serum of Pancreas Ca. patient #50, 1:100 dilution", "value": 0}, {"measurement": "Fluorescence intesity", "setting": "serum of Pancreas Ca. patient #51, 1:100 dilution", "value": 0}, {"measurement": "Fluorescence intesity", "setting": "serum of Pancreas Ca. patient #52, 1:100 dilution", "value": 79}, {"measurement": "Fluorescence intesity", "setting": "serum of Pancreas Ca. patient #53, 1:100 dilution", "value": 0}, {"measurement": "Fluorescence intesity", "setting": "serum of Pancreas Ca. patient #54, 1:100 dilution", "value": 0}, {"measurement": "Fluorescence intesity", "setting": "serum of Pancreas Ca. patient #55, 1:100 dilution", "value": 0}, {"measurement": "Fluorescence intesity", "setting": "serum of Uterine cervical Ca. patient #1, 1:100 dilution", "value": 0}, {"measurement": "Fluorescence intesity", "setting": "serum of Uterine cervical Ca. patient #2, 1:100 dilution", "value": 0}, {"measurement": "Fluorescence intesity", "setting": "serum of Uterine cervical Ca. patient #3, 1:100 dilution", "value": 0}, {"measurement": "Fluorescence intesity", "setting": "serum of Uterine cervical Ca. patient #4, 1:100 dilution", "value": 0}, {"measurement": "Fluorescence intesity", "setting": "serum of Uterine cervical Ca. patient #5, 1:100 dilution", "value": 0}, {"measurement": "Fluorescence intesity", "setting": "serum of Uterine cervical Ca. patient #6, 1:100 dilution", "value": 507}, {"measurement": "Fluorescence intesity", "setting": "serum of Uterine cervical Ca. patient #7, 1:100 dilution", "value": 11}, {"measurement": "Fluorescence intesity", "setting": "serum of Uterine cervical Ca. patient #8, 1:100 dilution", "value": 24}, {"measurement": "Fluorescence intesity", "setting": "serum of Uterine cervical Ca. patient #9, 1:100 dilution", "value": 82}, {"measurement": "Fluorescence intesity", "setting": "serum of Uterine cervical Ca. patient #10, 1:100 dilution", "value": 13}, {"measurement": "Fluorescence intesity", "setting": "serum of Uterine cervical Ca. patient #11, 1:100 dilution", "value": 20}, {"measurement": "Fluorescence intesity", "setting": "serum of Uterine cervical Ca. patient #12, 1:100 dilution", "value": 37}, {"measurement": "Fluorescence intesity", "setting": "serum of Uterine cervical Ca. patient #13, 1:100 dilution", "value": 20}, {"measurement": "Fluorescence intesity", "setting": "serum of Uterine cervical Ca. patient #14, 1:100 dilution", "value": 16}, {"measurement": "Fluorescence intesity", "setting": "serum of Uterine cervical Ca. patient #15, 1:100 dilution", "value": 87}, {"measurement": "Fluorescence intesity", "setting": "serum of Uterine cervical Ca. patient #16, 1:100 dilution", "value": 179}, {"measurement": "Fluorescence intesity", "setting": "serum of Uterine cervical Ca. patient #17, 1:100 dilution", "value": 45}, {"measurement": "Fluorescence intesity", "setting": "serum of Uterine cervical Ca. patient #18, 1:100 dilution", "value": 42}, {"measurement": "Fluorescence intesity", "setting": "serum of Uterine cervical Ca. patient #19, 1:100 dilution", "value": 41}, {"measurement": "Fluorescence intesity", "setting": "serum of Uterine cervical Ca. patient #20, 1:100 dilution", "value": 100}, {"measurement": "Fluorescence intesity", "setting": "serum of Uterine cervical Ca. patient #21, 1:100 dilution", "value": 20}, {"measurement": "Fluorescence intesity", "setting": "serum of Uterine cervical Ca. patient #22, 1:100 dilution", "value": 20}, {"measurement": "Fluorescence intesity", "setting": "serum of Uterine cervical Ca. patient #23, 1:100 dilution", "value": 44}, {"measurement": "Fluorescence intesity", "setting": "serum of Uterine cervical Ca. patient #24, 1:100 dilution", "value": 1169}, {"measurement": "Fluorescence intesity", "setting": "serum of Uterine cervical Ca. patient #25, 1:100 dilution", "value": 15}, {"measurement": "Fluorescence intesity", "setting": "serum of Uterine cervical Ca. patient #26, 1:100 dilution", "value": 106}, {"measurement": "Fluorescence intesity", "setting": "serum of Uterine cervical Ca. patient #27, 1:100 dilution", "value": 28}, {"measurement": "Fluorescence intesity", "setting": "serum of Uterine cervical Ca. patient #28, 1:100 dilution", "value": 71}, {"measurement": "Fluorescence intesity", "setting": "serum of Uterine cervical Ca. patient #29, 1:100 dilution", "value": 13}, {"measurement": "Fluorescence intesity", "setting": "serum of Uterine cervical Ca. patient #30, 1:100 dilution", "value": 25}, {"measurement": "Fluorescence intesity", "setting": "serum of Uterine cervical Ca. patient #31, 1:100 dilution", "value": 101}, {"measurement": "Fluorescence intesity", "setting": "serum of Uterine cervical Ca. patient #32, 1:100 dilution", "value": 16}, {"measurement": "Fluorescence intesity", "setting": "serum of Uterine cervical Ca. patient #33, 1:100 dilution", "value": 114}, {"measurement": "Fluorescence intesity", "setting": "serum of Uterine cervical Ca. patient #34, 1:100 dilution", "value": 16}, {"measurement": "Fluorescence intesity", "setting": "serum of Uterine cervical Ca. patient #35, 1:100 dilution", "value": 19}]}]}
